# Experimental data reported in US6384086B1, “Ethene containing solutions and use thereof in methods of therapy or prophylaxis” (priority 1996, dated 2002).
# Assays:
# [1] = liquid containing reactive components
# [2] = tested on: Poliovirus type 1 (Sabin)
# [3] = tested on: eight bacterial strains representing four bacterial genera (Staphylococcus, Pseudomonas, Klebsiella, Enterococcus)
# Hepatitis C = assay: trial on a Hepatitis C sufferer, ALT count as infection marker; assay type: in vivo, human; conditions: for reduction of ALT count: over 16 week trial period, same trialist, interferon 9 million IU weekly
Compound,reduction of ethene in solution by reaction with other components [1] [%],sterilizing effect in vitro [2],sterilizing effect in vitro (Herpes simplex virus),sterilizing effect in vitro (Influenza A (H3N2)),sterilizing effect in vitro [3],anti-Hepatitis C efficacy better than the interferon therapy (Hepatitis C; ALT reduction over 16 weeks) [%],depression (reported by trialist) (Hepatitis C; during therapy),"ALT count (Hepatitis C; end of week 4 (from 242), daily 230 millilitres ethene gas in 745 millilitres purified water) [u/l]",ALT count (Hepatitis C; end of week 6) [u/l],ALT count (Hepatitis C; end of week 14) [u/l],infection symptoms (Hepatitis C; first 18 days therapy),reduction of ALT count (Hepatitis C) [u/l],ALT count (Hepatitis C; week 16) [u/l]
C=C [ethene],50,not to be sterilized,not to be sterilized,not to be sterilized,without apparent sterilizing success,337,significant lifting,218,303,93,amelioration of infection symptoms,153,89
interferon [reference compound],,,,,,,,,,,,35,
